Assay results as given in patent US10251394B2, “Molecules having pesticidal utility, and intermediates, compositions, and processes, related thereto” (Dow AgroSciences LLC, priority 2016, dated 2019).

Experiments:
[1] = system: Beet Armyworm (Spodoptera exigua); assay: Bioassay on Beet Armyworm (BAW), 128-well diet tray assay; assay type: in vivo; settings: for mortality at 0.05 µg/cm2 / mortality at 0.5 µg/cm2 / mortality at 5 µg/cm2: 168 h, second instar larvae, five to seven days, read-out: BAW Percent control (or mortality); for mortality at 0.05 µg/cm2: 0.05 μg/cm^2 on artificial diet; for mortality at 0.5 µg/cm2: 0.5 μg/cm^2 on artificial diet; for mortality at 5 µg/cm2: 5 μg/cm^2 on artificial diet; for pest or weed control at 50 µg/cm2: Beet Armyworm, Table ABC, read-out: BAW rating
Protocol: (§1) Example A: Bioassays on Beet Armyworm (Spodoptera Exigua, LAPHEG) (“BAW”), Corn Earworm (Helicoverpa Zea, HELIZE) (“CEW”), and Cabbage Looper (Trichoplusia Ni, TRIPNI) (“CL”)
(§2) Certain molecules disclosed in this document were tested against BAW, CEW, and CL using procedures described in the following examples. In the reporting of the results, the “BAW, CEW, & CL Rating Table” was used (See Table Section).
Bioassays on BAW were conducted using a 128-well diet tray assay. One to five second instar BAW larvae were placed in each well (3 mL) of the diet tray that had been previously filled with 1 mL of artificial diet to which 50 μg/cm^2 of the test molecule (dissolved in 50 μL of 90:10 acetone-water mixture) had been applied (to each of eight wells) and then allowed to dry. Trays were covered with a clear self-adhesive cover and held at 25° C., 14:10 light-dark for five to seven days. Percent mortality was recorded for the larvae in each well; activity in the eight wells was then averaged. The results are indicated in the table entitled “Table ABC: Biological Results” (See Table Section).
(§3) Bioassays on BAW and CL were conducted according to the procedures outlined in Example A: Bioassays on Beet Armyworm (“BAW”) and Cabbage Looper (“CL”) using the indicated concentrations.

[2] = system: Cabbage Looper (Trichoplusia ni); assay: Bioassay on Cabbage Looper (CL), 128-well diet tray assay; assay type: in vivo; settings: for mortality at 0.05 µg/cm2 / mortality at 0.5 µg/cm2 / mortality at 5 µg/cm2: 168 h, second instar larvae, five to seven days, read-out: CL Percent control (or mortality); for mortality at 0.05 µg/cm2: 0.05 μg/cm^2 on artificial diet; for mortality at 0.5 µg/cm2: 0.5 μg/cm^2 on artificial diet; for mortality at 5 µg/cm2: 5 μg/cm^2 on artificial diet; for pest or weed control at 50 µg/cm2: Cabbage Looper, Table ABC, read-out: CL rating
Protocol: as §1, §2
Bioassays on CL were conducted using a 128-well diet tray assay. One to five second instar CL larvae were placed in each well (3 mL) of the diet tray that had been previously filled with 1 mL of artificial diet to which 50 μg/cm^2 of the test molecule (dissolved in 50 μL of 90:10 acetone-water mixture) had been applied (to each of eight wells) and then allowed to dry. Trays were covered with a clear self-adhesive cover and held at 25° C., 14:10 light-dark for five to seven days. Percent mortality was recorded for the larvae in each well; activity in the eight wells was then averaged. The results are indicated in the table entitled “Table ABC: Biological Results” (See Table Section).
as §3

| Structure (SMILES) | mortality at 0.05 µg/cm2 [1] [%] | mortality at 0.5 µg/cm2 [1] [%] | mortality at 5 µg/cm2 [1] [%] | pest or weed control at 50 µg/cm2 [1] [%] | mortality at 0.05 µg/cm2 [2] [%] | mortality at 0.5 µg/cm2 [2] [%] | mortality at 5 µg/cm2 [2] [%] | pest or weed control at 50 µg/cm2 [2] [%] |
| --- | --- | --- | --- | --- | --- | --- | --- | --- |
| O=C(CNC(=O)c1ccc(/C(F)=C/C(c2cc(Cl)c(Cl)c(Cl)c2)C(F)(F)F)cc1C(F)(F)F)NCC(F)(F)F (stereo not drawn) [F1, (Z)—N-(2-oxo-2-((2,2,2-trifluoroethyl)amino)ethyl)-4-(1,4,4,4-tetrafluoro-3-(3,4,5-trichlorophenyl)but-1-en-1-yl)-2-(trifluoromethyl)benzamide] | 100 | 100 | 100 | 50 to 100 | 100 | 100 | 100 | 50 to 100 |
| C[C@@H](NC(=O)c1ccc(/C(F)=C/C(c2cc(Cl)c(Cl)c(Cl)c2)C(F)(F)F)cc1C(F)(F)F)C(=O)NCC(F)(F)F (stereo partly drawn) [F2, N—((R)-1-Oxo-1-((2,2,2-trifluoroethyl)amino)propan-2-yl)-4-((Z)-1,4,4,4-tetrafluoro-3-(3,4,5-trichlorophenyl)but-1-en-1-yl)-2-(trifluoromethyl)benzamide] | 100 | 100 | 100 | 50 to 100 | 100 | 100 | 100 | 50 to 100 |
| O=C(NC1(C(=O)NCCC2CC2)CC1)c1ccc(/C(F)=C/C(c2cc(Cl)c(Cl)c(Cl)c2)C(F)(F)F)cc1C(F)(F)F (stereo not drawn) [F4, (Z)—N-(1-((2-cyclopropylethyl)carbamoyl)cyclopropyl)-4-(1,4,4,4-tetrafluoro-3-(3,4,5-trichlorophenyl)but-1-en-1-yl)-2-(trifluoromethyl)benzamide] |  |  |  | 50 to 100 |  |  |  | 50 to 100 |
| C=CCNC(=O)C1(NC(=O)c2ccc(/C(F)=C/C(c3cc(Cl)c(Cl)c(Cl)c3)C(F)(F)F)cc2C(F)(F)F)CC1 (stereo not drawn) [F5, (Z)—N-(1-(Allylcarbamoyl)cyclopropyl)-4-(1,4,4,4-tetrafluoro-3-(3,4,5-trichlorophenyl)but-1-en-1-yl)-2-(trifluoromethyl)benzamide] |  |  |  | 50 to 100 |  |  |  | 50 to 100 |
| Cc1cc(/C(F)=C/C(c2cc(Cl)c(Cl)c(Cl)c2)C(F)(F)F)ccc1C(=O)NCC(=O)NCC(F)(F)F (stereo not drawn) [F6, (Z)-2-Methyl-N-(2-oxo-2-((2,2,2-trifluoroethyl)amino)ethyl)-4-(1,4,4,4-tetrafluoro-3-(3,4,5-trichlorophenyl)but-1-en-1-yl)benzamide] | 100 | 100 |  | 50 to 100 | 100 | 100 |  | 50 to 100 |
| Cc1cc(/C(F)=C/C(c2cc(Cl)c(Cl)c(Cl)c2)C(F)(F)F)ccc1C(=O)N[C@H](C)C(=O)NCC(F)(F)F (stereo partly drawn) [F7, 2-Methyl-N—((R)-1-oxo-1-((2,2,2-trifluoroethyl)amino)propan-2-yl)-4-((Z)-1,4,4,4-tetrafluoro-3-(3,4,5-trichlorophenyl)but-1-en-1-yl)benzamide] | 100 | 100 |  | 50 to 100 | 100 | 100 |  | 50 to 100 |
| Cc1cc(/C(F)=C/C(c2cc(Cl)c(Cl)c(Cl)c2)C(F)(F)F)ccc1C(=O)NC1(C(=O)NCC(F)(F)F)CC1 (stereo not drawn) [F8, (Z)-2-Methyl-4-(1,4,4,4-tetrafluoro-3-(3,4,5-trichlorophenyl)but-1-en-1-yl)-N-(1-((2,2,2-trifluoroethyl)carbamoyl)cyclopropyl)benzamide] |  |  |  | 50 to 100 |  |  |  | 50 to 100 |
| C=CCNC(=O)C1(NC(=O)c2ccc(/C(F)=C/C(c3cc(Cl)c(Cl)c(Cl)c3)C(F)(F)F)cc2C)CC1 (stereo not drawn) [F9, (Z)—N-(1-(Allylcarbamoyl)cyclopropyl)-2-methyl-4-(1,4,4,4-tetrafluoro-3-(3,4,5-trichlorophenyl)but-1-en-1-yl)benzamide] |  |  |  | 50 to 100 |  |  |  | 50 to 100 |
